We go through three compounds from patent US11255855B1, “COVID-19 spike-ACE2 binding assay for drug and antibody screening” (priority 2020, dated 2022).

The subject of experiment [1] is SARS-COV-2-S-driven entry. The format is cell-based, SARS-CoV-2 spike pseudovirus in A549 cells.
The next experiment concerns VSV-G-driven entry. The format is cell-based, VSV-G pseudovirus.

For the compound `COc1cc(C(=O)NS(=O)(=O)c2ccccc2C)ccc1Cc1cn(C)c2ccc(NC(=O)OC3CCCC3)cc12` [Zafirlukast], in experiment [1], the “blocking effect on pseudovirus entry into host A549 cells” value is “blocking effect” and the “inhibition of SARS-COV-2-S-driven entry (in words)” value is “inhibited”. Further, in the experiment with VSV-G-driven entry, the “inhibition of VSV-G-driven entry (in words)” value is “not VSV-G-driven entry”.
For `CN(C)C(=O)COC(=O)Cc1ccc(OC(=O)c2ccc(NC(=N)N)cc2)cc1` [camostat, Camostat Mesilate], the “inhibition of SARS-COV-2-S-driven entry (in words)” value in experiment [1] was “No inhibition”.
Still for that read-out and setting: in the case of `CCN1CCN(C(=O)N[C@@H](C(=O)N[C@@H]2C(=O)N3C(C(=O)O)=C(CSc4nnnn4C)CS[C@H]23)c2ccc(O)cc2)C(=O)C1=O` [cefoperazone] it was “No inhibition”.
